Several values for one entry are separate records, joined by “and”; a condition that tells them apart may be missing. Equal values may be shown once. After the bases stand the sugars from the 5' end (letter, count) and the backbone: PS all phosphorothioate, else s phosphorothioate and o phosphodiester by linkage. Methylation of C is not given here. e = 2'-O-(2-methoxyethyl) (MOE); k = constrained ethyl (cEt); d = 2'-deoxy (DNA)
Target: APOL1
Conditions: ASO

Sequence	target mRNA inhibition (A431, 0.0625 µM)	target mRNA inhibition (A431, 0.25 µM)	target mRNA inhibition (A431, 1 µM)	target mRNA inhibition (A431, 2 µM) [%]	further results
TCCTGGGCGGCGACAA (sugars k4 d9 k3, PS)	46%	74%	85%	–	–
ATTCTCATGGTACAGG (sugars k3 d4 k3 e1 d5, PS)	48%	72%	88%	93	target mRNA inhibition (A431, 0.0156 µM): 17%
TTCTCATGGTACAGGA (sugars kkkddddkekekdddd, PS)	–	–	–	54	–
GTCTAAAGTAAACTGC (sugars k4 d9 k3, PS)	–	65% and 83%	81% and 89%	–	–
ACACATCATTGGGTTA (sugars kekddddeekkddddd, PS)	–	–	–	87	–
ACACATCATTGGGTTA (sugars kdddddkekekddddd, PS)	–	–	–	47	–
AAAGAACTCAAGTCAG (sugars k4 d9 k3, PS)	–	61% and 82%	83% and 90%	–	–
AATTATGGAATTGCAG (sugars kdddddkekekddddd, PS)	–	–	–	52	–
GCTATGGAAATGCCAA (sugars k4 d9 k3, PS)	28%	61%	81%	–	–
AACACATCATTGGGTT (sugars k3 d4 k3 e1 d5, PS)	–	–	–	58	–
GAGAACATTGAAACAC (sugars k3 d10 k3, PS)	19%	65%	86%	–	–
ACTTTTTCACCATAGC (sugars k4 d9 k3, PS)	53%	82%	93%	–	–
TCTATTAGAGGGCTAG (sugars kkdddddkekeddddd, PS)	–	–	–	72	–
GGCAGTTTTGTAAGTG (sugars k2 d4 e3 k2 d5, PS)	–	–	–	80	–
TCAACACATCATTGGG (sugars k4 d9 k3, PS)	38%	73%	90%	–	–
AGTTTTGTAAGTGCAA (sugars kkddddekekeddddd, PS)	53%	79%	91%	91	target mRNA inhibition (A431, 0.0156 µM): 25%
TTTGTAAGTGCAACCA (sugars kkdddddkekeddddd, PS)	46%	78%	91%	92	target mRNA inhibition (A431, 0.0156 µM): 36%
CTTTAAACTCAGGTGA (sugars k3 d4 k3 e1 d5, PS)	–	–	–	59	–
ATCCTGGGCGGCGACA (sugars k4 d9 k3, PS)	35% and 28%	62% and 50%	82% and 72%	–	–
TCAGATGGGTACTTCT (sugars k2 d4 e4 k2 d4, PS)	–	–	–	78	–
TTCTCATGGTACAGGA (sugars kkddddkekekkdddd, PS)	–	–	–	20	–
TAAGTATTGCCAGCTA (sugars k2 d4 e3 k2 d5, PS)	–	–	–	79	–
AAGCTTTAAACTCAGG (sugars kkddddekekeddddd, PS)	58%	84%	92%	95	target mRNA inhibition (A431, 0.0156 µM): 20%
TTCTATTAGAGGGCTA (sugars kdddddkekekddddd, PS)	–	–	–	45	–
CAGTTTTGTAAGTGCA (sugars kkddddkdkdkddddd, PS)	–	–	95%	95	target mRNA inhibition (A431, 0.04 µM): 41%
ACTTCTGTTAGATACA (sugars k4 d9 k3, PS)	38%	73%	90%	–	–

Sequence	target mRNA inhibition (A431, 0.0625 µM)	target mRNA inhibition (A431, 0.25 µM)	target mRNA inhibition (A431, 1 µM)	target mRNA inhibition (A431, 2 µM) [%]	further results
TGTTATATTTGATCCT (sugars kekddddeekkddddd, PS)	40%	70%	89%	94	target mRNA inhibition (A431, 0.0156 µM): 31%
GGGAATTATGGAATTG (sugars k2 d4 e3 k2 d5, PS)	–	–	–	86	–
GTATTGTTTTTGTGGG (sugars kkddddkekekkdddd, PS)	–	–	–	39	–
CGCAATGCTGACTTGG (sugars kkddddkekekkdddd, PS)	–	–	–	60	–
GCAATGCTGACTTGGC (sugars kkddddkekekkdddd, PS)	12%	44%	80%	91	target mRNA inhibition (A431, 0.0156 µM): 5%
ACTTTACATGCACGAT (sugars kkdddddddddekeke, PS)	25%	58%	84%	–	target mRNA inhibition (A431, 0.0156 µM): 8%
TTTGTAAGTGCAACCA (sugars kekddddeekkddddd, PS)	46%	84%	96%	99	target mRNA inhibition (A431, 0.0156 µM): 21%
CTTTAAACTCAGGTGA (sugars kkddddkdkdkddddd, PS)	–	–	–	89	–
TTCATGATCATTTGTC (sugars k4 d9 k3, PS)	47%	68%	81%	–	–
CGTCAATATATTCTTT (sugars kkddddekekeddddd, PS)	–	–	–	90	–
TTTGTAAGTGCAACCA (sugars kkkddddkdkdkdddd, PS)	–	–	–	71	–
ACGCAATGCTGACTTG (sugars kdddddkekekddddd, PS)	–	–	–	71	–
GCAAGGCTAAGTTCCG (sugars k4 d9 k3, PS)	79%	92%	97%	–	–
TTGGGTCAAAAGCGAT (sugars k4 d9 k3, PS)	56%	86%	93%	–	–
GTGAGTATTGTTTTTG (sugars kkddddekekeddddd, PS)	–	–	–	93	–
AGTTTTGTAAGTGCAA (sugars k3 d4 k3 e1 d5, PS)	60%	87%	94%	96	target mRNA inhibition (A431, 0.0156 µM): 15%
TTTAAACTCAGGTGAC (sugars kddddkekekeddddd, PS)	–	–	–	43	–
AATTCTATTAGAGGGC (sugars kkddddkekekddddd, PS)	–	–	–	56	–
GTTCAAAAGCAGCATT (sugars kkkddddkekekdddd, PS)	–	–	–	24	–
GGTTCAAAAGCAGCAT (sugars k3 d4 k3 e1 d5, PS)	–	–	–	74	–
AGTTTTGTAAGTGCAA (sugars kkddddkdkdkddddd, PS)	34%	72%	85%	91	target mRNA inhibition (A431, 0.0156 µM): 16%
AATTTTATGGAACCTC (sugars k3 d10 k3, PS)	37%	74%	90%	–	–
ATTCAGAATTTCCACT (sugars k3 d4 k3 e1 d5, PS)	–	–	–	89	–
CGCAATGCTGACTTGG (sugars kkkddddkekekdddd, PS)	–	–	–	68	–
TTTATACCAGTGTCTT (sugars k2 d4 e3 k2 d5, PS)	–	–	–	88	–
TTTGTAAGTGCAACCA (sugars kddddkekekeddddd, PS)	–	–	–	95	–

Sequence	target mRNA inhibition (A431, 0.0625 µM)	target mRNA inhibition (A431, 0.25 µM)	target mRNA inhibition (A431, 1 µM)	target mRNA inhibition (A431, 2 µM) [%]	further results
CACCCTCTTTATCCCC (sugars k4 d9 k3, PS)	47% and 62%	76% and 82%	90%	–	–
GAACGCAATGCTGACT (sugars k3 d10 k3, PS)	14%	50%	76%	–	–
TCAGATGGGTACTTCT (sugars kkkddddkekekdddd, PS)	–	–	–	50	–
CAGCTATGGAAATGCC (sugars k4 d9 k3, PS)	34%	58%	79%	–	–
ATTCTATTAGAGGGCT (sugars kkddddekekeddddd, PS)	–	–	–	25	–
GTAAGTATTGCCAGCT (sugars kkkddddkekekdddd, PS)	–	–	–	73	–
TGGTTCAAAAGCAGCA (sugars kkkddddkekekdddd, PS)	–	–	–	57	–
GTTATGAAATTATTGG (sugars kkddddkekekddddd, PS)	–	–	–	83	–
TCCAGATGTGTTTAGG (sugars k4 d9 k3, PS)	82%	89%	94%	–	–
GAAGATTGGCTCTGGC (sugars kekddddeekkddddd, PS)	–	–	–	87	–
TTTGTAAGTGCAACCA (sugars kkddddkdkdkddddd, PS)	–	–	–	99	–
CTTTAAACTCAGGTGA (sugars kddddkekekeddddd, PS)	–	–	–	70	–
ACCCTTTTGGCACCTT (sugars k4 d9 k3, PS)	49%	79% and 76%	92% and 89%	–	–
AACACATCATTGGGTT (sugars k2 d4 e3 k2 d5, PS)	–	–	–	43	–
CTGAAGATTGGCTCTG (sugars kkddddkekekddddd, PS)	–	–	–	45	–
TTCAGAATTTCCACTA (sugars kkddddkekekkdddd, PS)	–	–	–	58	–
CGCAATGCTGACTTGG (sugars kkddddekekeddddd, PS)	48%	80%	93%	94	target mRNA inhibition (A431, 0.0156 µM): 22%
GAATTATGGAATTGCA (sugars kkddddkekekddddd, PS)	–	–	–	51	–
GTATTTCTTGATGTGG (sugars k3 d4 k3 e1 d5, PS)	–	–	–	98	–
GCTGGGTCTGTAGTGG (sugars k4 d9 k3, PS)	49%	70%	82%	–	–
TGGGTCAAAAGCGATG (sugars k4 d9 k3, PS)	25%	54%	77%	–	–
TAATTCTATTAGAGGG (sugars kkddddekekeddddd, PS)	–	–	–	46	–
TTATATTTGATCCTCA (sugars kkddddekekeddddd, PS)	–	–	–	96	–
TTCTATTAGAGGGCTA (sugars kkddddkekekkdddd, PS)	–	–	–	26	–

— the OligoGym collection
